Experimental data: patent US5840940A, “Linoleoylamide based ceramide derivative and its use in cosmetic preparations for the treatment of dry skin” (Gist-Brocades B.V., priority 1994, dated 1998)
“Also recorded” adds a separate entry of the source.

Columns and labels:
[1] = Solubility in emollients (visual inspection, maximum concentration before the solution turned cloudy); type: physicochemical
Description: Increasing amounts of the compound were added to the solvent and stirred under nitrogen for 30 minutes at 45° C. After cooling to room temperature (22°±2° C.) the solutions were kept in the dark. After 1, 24 and 48 hours the solutions were visually inspected. The maximum concentration was determined before the solution turned cloudy, indicating the presence of insoluble crystals.

SDS-damaged skin [2] = test: Skin humidity of SDS-damaged skin (corneometer CM 820 PC); type: in vivo, female volunteers (human); settings: creams with 0.2% and 0.5% ceramide IIIA, 14 days, compared to placebo
Description: (§1) The corneometer CM 820 PC (Courage and Khazaka, Cologne, Germany) registers the electrical capacitance of the skin surface, which is a measure of the degree of moisture on the skin's surface. The capacitance is expressed digitally in arbitrary units (a.u.). Three measurements were performed on each test area and the mean was used to define hydration state of the stratum corneum.
(§2) The corneometer comprises a console and its sensor. The sensor is connected to the console by a special plug and coiled cable. The measurement is indicated on the 40×18 mm display screen on the console as a three-place number. The display also fulfils other information functions.
The sensor is rectangular in shape. Its special glass coated active front surface can be moved axially, and has a stroke of at least 3 mm. The measuring principle demands that the sensor surface be placed flat on the test object at a constant pressure. In order to ensure this as reproducibly as possible, the front surface of the measuring head has been designed to be very small (7×7 mm). […]
(§3) The corneometer is completely automatic in operation. In order to carry out a measurement, the measuring head is pressed against the area of skin to be measured. […]
Measurements were evaluated during the treatment period on day 3, 7 and 14 one hour after the last daily application. […]

SDS-damaged skin [3] = test: Trans-epidermal water loss (TEWL) / barrier recovery of SDS-damaged skin (Tewameter); type: in vivo, female volunteers (human)
Description: Measurements of trans-epidermal water loss (TEWL) were performed with the Tewameter (Courage & Khazaka, Cologne, Germany). The Tewameter is a device for measurement of water evaporation on skin surfaces based on the diffusion principle discovered by A. Fick in 1885.
Five female volunteers at the age of 22-43 years with healthy skin were included in the test.
Measurements were carried out at a temperature of 22°±1° C. and a relative humidity of 60±10%. Subjects were accustomed to ambient conditions for 20 min prior to any measurement. The test was carried out on the volar forearms. The skin of the forearms was treated with a 5% aqueous solution of sodium lauryl sulphate (SDS) and an occlusive dressing applied. The dressing was removed 2 h later, and the regions gently washed with water and air-dried. After 30 min the measurements were done. Then the three test products were applied, one area remained untreated. The dose of application was about 2 mg/cm^2. In the following 14 days a home application in the morning and evening took place.
Measurements were evaluated during the treatment period on day 3, 7 and 14 one hour after the last daily application. Use of other cosmetic products was restricted on the test areas throughout the whole study.

healthy skin = test: Skin humidity of healthy skin (corneometer CM 820 PC), long-term effects of ceramide IIIA; type: in vivo, female volunteers (human); settings: creams with 0.2% and 0.5% ceramide IIIA, twice daily, 28 days, compared to placebo
Description: as §1, §2
The sensor is rectangular in shape. Its special glass coated active front surface can be moved axially, and has a stroke of at least 3 mm. […]
as §3
Measurements were carried out at a temperature of 22°±1° C. and a relative humidity of 60±10%. […] Initially untreated skin was measured in all three areas to find baseline values. […]
Measurements were evaluated during the treatment period on day 7, 14 and 28 two hours after the last daily application. The application was ceased on day 28 and further measurements were evaluated on day 30 and 32. […]

[4] = isocetyl alcohol (Eutanol G16) and/or isostearic acid (Emersol)
[5] = isocetyl alcohol (Eutanol G16), stirred 45° C., room temperature (22°±2° C.), 1, 24 and 48 hours

SMILES	Solubility [1, 4]	Solubility [1, 5] [% w/v]	Moisturizing effect (skin humidity) (SDS-damaged skin [2])	Trans-epidermal water loss (SDS-damaged skin [3]; SDS-damaged skin, 14 days treatment, compared to placebo)	Restoration of the barrier layer (SDS-damaged skin [3]; surfactant (SDS)-pretreated skin, compared to placebo product)	Solubility, in words ([1]; emollient solvents, compared with saturated analogue and ceramide 1)	Moisturizing effect (skin humidity) (healthy skin)
CCCCCCCCCCCCCCCCCC(=O)N[C@@H](CO)[C@H](O)[C@H](O)CCCCCCCCCCCCCC [Ceramide III, N-stearoylphytosphingosine, reference compound]	less than 0.2 % (w/v)	0.16	–	–	–	–	–
CCCCC/C=C\C/C=C\CCCCCCCC(=O)N[C@@H](CO)[C@H](O)[C@H](O)CCCCCCCCCCCCCC [Ceramide IIIA, N-linoleoylphytosphingosine]	≥ 1 % (w/v)	5	increase of skin humidity of damaged skin compared to placebo	a reduction of trans-epidermal water loss	high capacity for restoration of the impaired lipid barrier of the skin; also recorded: quicker recovery of the barrier layer of SDS-treated skin than the placebo product	solubilizes much better than its saturated analogue and than ceramide 1	clear moisture-retaining effect on healthy skin; also recorded: clear moisturizing effect compared to placebo
